From patent US12337023B2, “Methods and compositions for the prevention and treatment of disease” (Stealth BioTherapeutics Inc., priority 2014, dated 2025)
Non-standard residues stand in square brackets, D forms with d. Residues, ends and D or L forms follow the SMILES beside them. No end group written: not given here. Dmt = Cc1cc(O)cc(C)c1C[C@H](N)C(=O)O

Tests used:
[1] = Col4a3 null mice, daily 5 mg/kg, 15 weeks of age, 30 minutes after the last injection; compared with 5 mg/kg at 6 weeks and 1 mg/kg at 15 weeks
Protocol: Homozygous male Col4a3 null mice and wild-type litter mates were used in this study. Subjects were divided into the following groups: • (1) Healthy wild-type controls • (2) Col4a3 null mice treated with water • (3) Col4a3 null mice treated with 1 mg/kg D-Arg-2′6′-Dmt-Lys-Phe-NH2 • (4) Col4a3 null mice treated with 5 mg/kg D-Arg-2′6′-Dmt-Lys-Phe-NH2 • (5) Col4a3 null mice treated with 5 mg/kg D-Arg-2′6′-Dmt-Lys-Phe-NH2 (Pharmacokinetics group)
Groups (1)-(4) consisted of 16 mice, out of which 10 were used for survival rate studies and 6 for pathology and RNA/protein analysis. Group (5) consisted of 6 mice, 3 of which were sacrificed at 30 minutes after the 7th injection (age, 6 weeks), and 3 at 24 hours after the 7th injection (age, 6 weeks).

[2] = system: Col4a3 null mice (Alport mice); assay: Survival of Col4a3 null mice (Alport Syndrome mouse model); format: in vivo; settings: 1 mg/kg or 5 mg/kg once daily subcutaneous
From the text: Six animals from experimental groups (1)-(4) were sacrificed for tissue collection at week 15. One kidney from each animal was harvested for protein/RNA analysis and the second kidney was collected for paraffin sections for analysis via microscopy. Survival data was collected for the remaining 10 animals in groups (1)-(4).

[3] = system: several mammalian cell types; settings: energy-independent manner (Zhao, et al., 2003); cited from earlier work
mu-opioid receptor = mu-opioid receptor (Homo sapiens, UniProt P35372); settings: stated in the description, no test described; cited from earlier work
Chain of mu-opioid receptor (P35372 whole entry, species assumed): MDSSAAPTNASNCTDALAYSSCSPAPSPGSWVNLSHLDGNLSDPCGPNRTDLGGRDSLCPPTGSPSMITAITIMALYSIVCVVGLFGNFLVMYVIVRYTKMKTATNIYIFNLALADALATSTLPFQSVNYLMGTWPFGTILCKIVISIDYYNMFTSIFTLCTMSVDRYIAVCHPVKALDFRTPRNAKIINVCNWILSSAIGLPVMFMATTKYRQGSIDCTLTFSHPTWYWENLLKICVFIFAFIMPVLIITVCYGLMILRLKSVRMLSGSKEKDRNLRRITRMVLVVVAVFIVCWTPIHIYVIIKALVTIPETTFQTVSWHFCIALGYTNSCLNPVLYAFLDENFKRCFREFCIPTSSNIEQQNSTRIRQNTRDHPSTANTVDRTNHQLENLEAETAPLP

In the case of `Cc1cc(O)cc(C)c1C[C@H](NC(=O)[C@H](N)CCCNC(=N)N)C(=O)N[C@@H](CCCCN)C(=O)N[C@@H](Cc1ccccc1)C(N)=O` [D-Arg-2′,6′-Dmt-Lys-Phe-NH2] (H-[dR][Dmt]KF-NH2), the plasma levels [1] is reported as “highest” and the “harm of peptide administration” value [2] is reported as “not harmful”.

For 2′,6′-Dmt-D-Arg-Phe-Lys-NH2, the “penetration of the plasma membrane” value [3] is given as “readily penetrates the plasma membrane”.

For Tyr-D-Arg-Phe-Lys-NH2, the “mu-opioid receptor agonist activity” value (mu-opioid receptor) is given as “has mu-opioid receptor agonist activity”.

For F[dR]FK-NH2, the “mu-opioid receptor agonist activity” value (mu-opioid receptor) is listed as “does not have mu-opioid receptor agonist activity”.
